# Reference: PubChem BioAssay (NCI)
#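 Compound exposure: 48 hours, 5 concentrations, 96-well plates. At the TGI there is no net growth.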
# Key:
# Assay in all cases: NCI anticancer screen, dose series, 48 h
# [1] = test system: 786-0 renal
# [2] = test system: A498 renal
# [3] = test system: A549 NSCLC
# [4] = test system: ACHN renal
# [5] = test system: CAKI-1 renal
# [6] = test system: CCRF-CEM leukemia
# [7] = test system: COLO 205 colon
# [8] = test system: DLD-1 colon
# [9] = test system: DMS 114 small cell lung
# [10] = test system: DMS 273 small cell lung
# [11] = test system: EKVX NSCLC
# [12] = test system: HCC-2998 colon
# [13] = test system: HCT-116 colon
# [14] = test system: HCT-15 colon
# [15] = test system: HL-60(TB) leukemia
# [16] = test system: HOP-18 NSCLC
# [17] = test system: HOP-62 NSCLC
# [18] = test system: HOP-92 NSCLC
# [19] = test system: HT29 colon
# [20] = test system: IGROV1 ovarian
# [21] = test system: K-562 leukemia
# [22] = test system: KM12 colon
# [23] = test system: KM20L2 colon
# [24] = test system: LOX IMVI melanoma
# [25] = test system: LXFL 529 NSCLC
# [26] = test system: M14 melanoma
# [27] = test system: M19-MEL melanoma
# [28] = test system: MALME-3M melanoma
# [29] = test system: MOLT-4 leukemia
# [30] = test system: NCI-H226 lung
# [31] = test system: NCI-H23 lung
# [32] = test system: NCI-H460 lung
# [33] = test system: NCI-H522 lung
# [34] = test system: OVCAR-3 ovarian
# [35] = test system: OVCAR-4 ovarian
# [36] = test system: OVCAR-5 ovarian
# [37] = test system: RPMI-8226 leukemia
# [38] = test system: RXF 393 renal
# [39] = test system: RXF-631 renal
# [40] = test system: SF-268 CNS
# [41] = test system: SF-295 CNS
# [42] = test system: SF-539 CNS
# [43] = test system: SK-MEL-2 melanoma
# [44] = test system: SK-MEL-28 melanoma
# [45] = test system: SK-MEL-5 melanoma
# [46] = test system: SK-OV-3 ovarian
# [47] = test system: SN12C renal
# [48] = test system: SNB-19 CNS
# [49] = test system: SNB-75 CNS
# [50] = test system: SNB-78 CNS
# [51] = test system: SR leukemia
# [52] = test system: SW-620 colon
# [53] = test system: TK-10 renal
# [54] = test system: U251 CNS
# [55] = test system: UACC-257 melanoma
# [56] = test system: UACC-62 melanoma
# [57] = test system: UO-31 renal
# [58] = test system: XF 498 CNS
# [59] = test system: OVCAR-8 ovarian
smiles,measurement,setting,value
COc1cc2c(cc1OC)C1(c3ccccc3)ON=C(c3ccccc3)N1CS2 (configuration not stated),TGI,[1],> 100 µM
same,TGI,[2],> 100 µM
same,TGI,[3],> 100 µM
same,TGI,[4],> 100 µM
same,TGI,[5],> 100 µM
same,TGI,[6],> 100 µM
same,TGI,[7],> 100 µM
same,TGI,[8],> 100 µM
same,TGI,[9],> 100 µM
same,TGI,[10],> 100 µM
same,TGI,[11],> 100 µM
same,TGI,[12],> 100 µM
same,TGI,[13],> 100 µM
same,TGI,[14],> 100 µM
same,TGI,[15],> 100 µM
same,TGI,[16],> 100 µM
same,TGI,[17],> 100 µM
same,TGI,[18],> 100 µM
same,TGI,[19],> 100 µM
same,TGI,[20],> 100 µM
same,TGI,[21],> 100 µM
same,TGI,[22],> 100 µM
same,TGI,[23],> 100 µM
same,TGI,[24],> 100 µM
same,TGI,[25],> 100 µM
same,TGI,[26],> 100 µM
same,TGI,[27],> 100 µM
same,TGI,[28],> 100 µM
same,TGI,[29],> 100 µM
same,TGI,[30],> 100 µM
same,TGI,[31],> 100 µM
same,TGI,[32],> 100 µM
same,TGI,[33],> 100 µM
same,TGI,[34],> 100 µM
same,TGI,[35],> 100 µM
same,TGI,[36],> 100 µM
same,TGI,[37],> 100 µM
same,TGI,[38],> 100 µM
same,TGI,[39],> 100 µM
same,TGI,[40],> 100 µM
same,TGI,[41],> 100 µM
same,TGI,[42],> 100 µM
same,TGI,[43],> 100 µM
same,TGI,[44],> 100 µM
same,TGI,[45],> 100 µM
same,TGI,[46],> 100 µM
same,TGI,[47],> 100 µM
same,TGI,[48],> 100 µM
same,TGI,[49],> 100 µM
same,TGI,[50],> 100 µM
same,TGI,[51],> 100 µM
same,TGI,[52],> 100 µM
same,TGI,[53],> 100 µM
same,TGI,[54],> 100 µM
same,TGI,[55],> 100 µM
same,TGI,[56],> 100 µM
same,TGI,[57],> 100 µM
same,TGI,[58],> 100 µM
CCOC1=C2C(C)(CCC3[C@@]4(C)C=CC(=O)C(C)(C)C4CC(O)[C@@]23C)C(c2ccoc2)C1=O (some centres not stated),TGI,[1],39.8 µM
same,TGI,[2],33.9 µM
same,TGI,[3],98.6 µM
same,TGI,[4],37.4 µM
same,TGI,[5],> 100 µM
same,TGI,[6],38.9 µM
same,TGI,[7],29.3 µM
same,TGI,[8],29.7 µM
same,TGI,[9],36.8 µM
same,TGI,[10],> 100 µM
same,TGI,[11],67.7 µM
same,TGI,[12],31.1 µM
same,TGI,[13],23.7 µM
same,TGI,[14],27.5 µM
same,TGI,[15],36.3 µM
same,TGI,[16],> 100 µM
same,TGI,[17],36.8 µM
same,TGI,[18],41.9 µM
same,TGI,[19],29.2 µM
same,TGI,[20],> 100 µM
same,TGI,[21],50.2 µM
same,TGI,[22],46.6 µM
same,TGI,[23],32 µM
same,TGI,[24],29.1 µM
same,TGI,[26],> 100 µM
same,TGI,[27],44.1 µM
same,TGI,[29],40.4 µM
same,TGI,[30],55.4 µM
same,TGI,[31],34.8 µM
same,TGI,[32],28.4 µM
same,TGI,[34],33.4 µM
same,TGI,[35],> 100 µM
same,TGI,[36],36 µM
same,TGI,[59],44.3 µM
same,TGI,[37],49.8 µM
same,TGI,[38],34 µM
same,TGI,[39],70.5 µM
same,TGI,[40],> 100 µM
same,TGI,[41],46.5 µM
same,TGI,[42],41.7 µM
same,TGI,[43],43.4 µM
same,TGI,[44],30.5 µM
same,TGI,[45],29.5 µM
same,TGI,[46],76.8 µM
same,TGI,[47],58 µM
same,TGI,[48],> 100 µM
same,TGI,[49],> 100 µM
same,TGI,[50],> 100 µM
same,TGI,[52],46.2 µM
same,TGI,[53],61.3 µM
same,TGI,[54],34.8 µM
same,TGI,[55],99.3 µM
same,TGI,[56],57.7 µM
same,TGI,[57],29.1 µM
